From US20090036422A1 (priority 2007, published 2009) come the findings set out here.

SMILES strings stand for the structures. Counter-ions that a name gives are not always drawn.

As a reminder, the Kb is the affinity of an antagonist, worked out from how it opposes an agonist. Low values mean higher antagonist affinity, high ones lower antagonist affinity.

This test deals with T1, human orexin-2 (hOX2) receptor (Homo sapiens, UniProt O43614).
T1 construct: expressed in transfected cells
T1 sequence (O43614 1-444): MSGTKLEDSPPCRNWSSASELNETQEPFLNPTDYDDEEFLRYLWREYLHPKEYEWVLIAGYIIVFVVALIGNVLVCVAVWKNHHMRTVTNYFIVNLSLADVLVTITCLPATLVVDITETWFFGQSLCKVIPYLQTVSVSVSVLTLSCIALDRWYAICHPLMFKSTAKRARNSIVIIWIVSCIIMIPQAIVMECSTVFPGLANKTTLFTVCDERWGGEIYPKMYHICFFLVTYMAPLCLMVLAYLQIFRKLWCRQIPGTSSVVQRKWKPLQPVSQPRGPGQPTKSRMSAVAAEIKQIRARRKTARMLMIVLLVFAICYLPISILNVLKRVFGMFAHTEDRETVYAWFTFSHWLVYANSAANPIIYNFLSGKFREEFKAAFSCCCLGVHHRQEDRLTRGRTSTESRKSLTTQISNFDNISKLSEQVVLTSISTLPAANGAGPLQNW
Put plainly: Intracellular Ca2+ mobilization assay (FLIPR), CHO(dHFr-) cells expressing hOX2, orexin-A at EC80 as agonist. The conditions noted are these: Kb=IC50/(1+[A]/EC50); CHO(dHFr-)-OX2R cells, antagonist applied 25 min before orexin-A EC80. Format: cell-based. The method, then:
Intracellular Ca^2+ Mobilization Assay
The Chinese Hamster Ovary (dHFr−) mutant cell line stably expressing human orexin-1 (hOX1) or human orexin-2 (hOX2) receptors were maintained in Dulbecco's Modified Eagle Medium (1×) with GlutaMax™ 1, 4500 mg/L D-Glucose and Sodium Pyruvate (Catalog No. 31966-021, Invitrogen, Carlsbad, Calif.), 5% dialyzed fetal calf serum (Catalog No. 26400-044), 100 μg/ml penicillin and 100 μg/ml streptomycin. The cells were seeded at 5×10^4 cells/well in the poly-D-lysine treated, 96-well, black/clear-bottomed plates (Catalog No. BD356640, BD Biosciences, Palo Alto, Calif.). 24 h later, the cells were loaded for 1 h at 37° C. with 4 μM Flou-4 acetoxymethyl ester (Catalog No. F-14202, Molecular Probes, Eugene, Oreg.) in FLIPR buffer (1×HBSS, 20 mM HEPES, 2.5 mM Probenecid). Hanks' Balanced Salt Solution (HBSS) (10×) (catalog No. 14065-049) and HEPES (1M) (catalog No. 15630-056) were purchased from Invitrogen, Carlsbad, Calif. Probenecid (250 mM) (catalog No. P8761) was from Sigma, Buchs, Switzerland. The cells were washed five times with FLIPR buffer to remove excess dye and intracellular calcium mobilization, [Ca^2+]i were measured using a Fluorometric Imaging Plate Reader (FLIPR-96, Molecular Devices, Menlo Park, Calif.) as described previously (Malherbe et al., Mol. Pharmacol., 64, 823-832, 2003). Orexin A (catalog No. 1455, Toris Cookson Ltd, Bristol, UK) was used as agonist. Orexin A (50 mM stock solution in DMSO) was diluted in FLIPR buffer +0.1% BSA. The EC50 and EC80 values of orexin-A were measured daily from standard agonist concentration-response curves in CHO(dHFr−) —OX1R and —OX2R cell lines. All compounds were dissolved in 100% DMSO. Inhibition curves were determined by addition of 11 concentrations (0.0001-10 μM) of inhibitory compounds and using EC80 value of orexin-A as agonist (a concentration which gave 80% of max agonist response, determined daily). The antagonists were applied 25 min (incubation at 37° C.) before the application of the agonist. Responses were measured as peak increase in fluorescence minus basal, normalized to the maximal stimulatory effect induced by EC80 value of orexin-A or orexin-B. Inhibition curves were fitted according to the Hill equation: y=100/(1+(x/IC50)^nH), where nH=slope factor using Excel-fit 4 software (Microsoft).
Kb values were calculated according to the following equation Kb=IC50/(1+[A]/EC50) where A is the concentration of agonist added which is very close to agonist EC80 value, and IC50 and EC50 values were derived from the antagonist inhibition and orexin-A or B agonist curves, respectively.

`NC(C(=O)N(CCc1ccc(C(F)(F)F)cc1)c1ccc2c(c1)CCCC2)c1ccccc1` (centres unmarked) [Example 137, 2-Amino-2-phenyl-N-(5,6,7,8-tetrahydro-naphthalen-2-yl)-N-[2-(4-trifluoromethyl-phenyl)-ethyl]-acetamide] gave an antagonist dissociation constant (Kb) of 0.0364 µM.
Next, `Cc1ccc(N(CCc2ccc(Cl)cc2Cl)C(=O)[C@@H](N)c2ccccc2)cc1C` [Example 205, (S)-2-Amino-N-[2-(2,4-dichloro-phenyl)-ethyl]-N-(3,4-dimethyl-phenyl)-2-phenyl-acetamide hydrochloride]: 0.0829 µM; `COc1ccc(N(CCc2ccc(C(F)(F)F)cc2)C(=O)C(N)c2cccc(Cl)c2)cc1OC` (centres unmarked) [Example 63, 2-Amino-2-(3-chloro-phenyl)-N-(3,4-dimethoxy-phenyl)-N-[2-(4-trifluoromethyl-phenyl)-ethyl]-acetamide]: 0.0664 µM.
The result for `Cc1ccc(N(CCc2ccc(F)cc2F)C(=O)[C@@H](N)c2ccccc2)cc1C` [Example 188, (S)-2-Amino-N-[2-(2,4-difluoro-phenyl)-ethyl]-N-(3,4-dimethyl-phenyl)-2-phenyl-acetamide hydrochloride] reads 0.0269 µM.
Next, `CNC(C(=O)N(CCc1ccc(C(F)(F)F)cc1)c1ccc(OC)c(OC)c1)c1ccccc1OC` (centres unmarked) [Example 34, N-(3,4-Dimethoxy-phenyl)-2-(2-methoxy-phenyl)-2-methylamino-N-[2-(4-trifluoromethyl-phenyl)-ethyl]-acetamide]: 0.027 µM; `COc1ccc(N(CCc2ccc(C(F)(F)F)cc2)C(=O)C(N)c2ccccc2)cc1F` (centres unmarked) [Example 64, 2-Amino-N-(3-fluoro-4-methoxy-phenyl)-2-phenyl-N-[2-(4-trifluoromethyl-phenyl)-ethyl]-acetamide]: 0.0383 µM; `Cc1ccc(CCN(C(=O)[C@@H](NC(=O)[C@H](C)N)c2ccccc2)c2ccc(C)c(C)c2)cc1` [Example 251, (S)-2-Amino-N-{(S)-[(3,4-dimethyl-phenyl)-(2-p-tolyl-ethyl)-carbamoyl]-phenyl-methyl}-propionamide]: 0.0102 µM.
On to `COc1ccc(N(CCc2ccc(C(F)(F)F)cc2)C(=O)[C@H](N)c2ccccc2)cc1OC` (single isomer, unassigned) [Example 174], for which the antagonist dissociation constant (Kb) is 0.046 µM.
The result for `Cc1ccc(N(CCc2cc(C(F)(F)F)ccc2F)C(=O)[C@@H](N)c2ccccc2)cc1C` [Example 193, (S)-2-Amino-N-(3,4-dimethyl-phenyl)-N-[2-(2-fluoro-5-trifluoromethyl-phenyl)-ethyl]-2-phenyl-acetamide; hydrochloride] reads 0.016 µM; that for `COc1ccc(C(O)C(=O)N(CCc2ccc(C(F)(F)F)cc2)c2ccc(OC)c(OC)c2)cc1O` (centres unmarked) [Example 27, N-(3,4-dimethoxyphenyl)-2-hydroxy-2-(3-hydroxy-4-methoxyphenyl)-N-{2-[4-(trifluoromethyl)phenyl]ethyl}acetamide], 0.0737 µM; that for `COc1ccc(N(CCc2ccc(C(F)(F)F)cc2)C(=O)C(N)c2ccccc2)cc1OC` (centres unmarked) [Example 45, 2-Amino-N-(3,4-dimethoxy-phenyl)-2-phenyl-N-[2-(4-trifluoromethyl-phenyl)-ethyl]-acetamide], 0.0018 µM.
For `Cc1ccc(N(CCc2cccc(Cl)c2)C(=O)[C@@H](N)c2ccccc2)cc1C` [Example 183, (S)-2-Amino-N-[2-(3-chloro-phenyl)-ethyl]-N-(3,4-dimethyl-phenyl)-2-phenyl-acetamide hydrochloride], the Kb came to 0.0496 µM.
The result for `Cc1ccc(N(CCc2ccc(F)c(C(F)(F)F)c2)C(=O)[C@@H](N)c2ccccc2)cc1C` [Example 187, (S)-2-Amino-N-(3,4-dimethyl-phenyl)-N-[2-(4-fluoro-3-trifluoromethyl-phenyl)-ethyl]-2-phenyl-acetamide hydrochloride] reads 0.0327 µM; that for `Cc1ccc(N(CCc2cccc(C(F)(F)F)c2F)C(=O)[C@@H](N)c2ccccc2)cc1C` [Example 195, (S)-2-Amino-N-(3,4-dimethyl-phenyl)-N-[2-(2-fluoro-3-trifluoromethyl-phenyl)-ethyl]-2-phenyl-acetamide hydrochloride], 0.0176 µM.
In turn, `Cc1ccc(CCN(C(=O)C(NCc2ccco2)c2ccccc2)c2ccc(C)c(C)c2)cc1` (centres unmarked) [Example 130, N-(3,4-Dimethyl-phenyl)-2-[(furan-2-ylmethyl)-amino]-2-phenyl-N-(2-p-tolyl-ethyl)-acetamide] registered a Kb of 0.0416 µM.
The result for `NC(C(=O)N(CCc1ccc(C(F)(F)F)cc1)c1ccc2c(c1)OCO2)c1ccccc1` (centres unmarked) [Example 58, 2-Amino-N-benzo[1,3]dioxol-5-yl-2-phenyl-N-[2-(4-trifluoromethyl-phenyl)-ethyl]-acetamide] reads 0.0275 µM; that for `Cc1cccc(N(CCc2ccc(C(F)(F)F)cc2)C(=O)C(N)c2ccccc2)c1` (centres unmarked) [Example 70, 2-Amino-2-phenyl-N-m-tolyl-N-[2-(4-trifluoromethyl-phenyl)-ethyl]-acetamide], 0.0579 µM.
Take `COc1ccc(N(CCc2ccc(C(F)(F)F)cc2)C(=O)C(N)c2ccc(Cl)cc2)cc1OC` (centres unmarked) [Example 62]: the Kb came out at 0.0751 µM.
Next, `NC(C(=O)N(CCc1ccc(C(F)(F)F)cc1)c1cccc(OC(F)F)c1)c1ccccc1` (centres unmarked) [Example 107, 2-Amino-N-(3-difluoromethoxy-phenyl)-2-phenyl-N-[2-(4-trifluoromethyl-phenyl)-ethyl]-acetamide]: 0.0509 µM.
The result for `Cc1ccc(CCN(C(=O)C(NC[C@@H]2CCCO2)c2ccccc2)c2ccc(C)c(C)c2)cc1` (stereo partly drawn) [Example 134, N-(3,4-Dimethyl-phenyl)-2-phenyl-2-{[(S)-1-(tetrahydro-furan-2-yl)methyl]-amino}-N-(2-p-tolyl-ethyl)-acetamide] reads 0.0161 µM; that for `Cc1ccc(N(CCc2cc(F)cc(Cl)c2)C(=O)[C@@H](N)c2ccccc2)cc1C` [Example 209, (S)-2-Amino-N-[2-(3-chloro-5-fluoro-phenyl)-ethyl]-N-(3,4-dimethyl-phenyl)-2-phenyl-acetamide hydrochloride], 0.0486 µM.
Next, `COc1ccc(N(CCc2ccc(C(F)(F)F)cc2)C(=O)C(N)c2ccc(F)cc2)cc1OC` (centres unmarked) [Example 61, 2-Amino-N-(3,4-dimethoxy-phenyl)-2-(4-fluoro-phenyl)-N-[2-(4-trifluoromethyl-phenyl)-ethyl]-acetamide]: 0.0025 µM; `Cc1ccc(N(CCc2ccc(F)c(F)c2)C(=O)C(N)c2ccc(Cl)s2)cc1C` (centres unmarked) [Example 214, 2-Amino-2-(5-chloro-thiophen-2-yl)-N-[2-(3,4-difluoro-phenyl)-ethyl]-N-(3,4-dimethyl-phenyl)-acetamide hydrochloride]: 0.0966 µM; `Cc1ccc(N(CCc2c(F)cc(C(F)(F)F)c(F)c2F)C(=O)/C(=N/O)c2ccccc2)cc1C` [Example 211, N-(3,4-Dimethyl-phenyl)-2-[hydroxyimino]-2-phenyl-N-[2-(2,3,6-trifluoro-4-trifluoromethyl-phenyl)-ethyl]-acetamide]: 0.0222 µM.
The compound `Cc1ccc(N(CCc2ccc(F)c(F)c2)C(=O)C(N)c2ccsc2)cc1C` (centres unmarked) [Example 216, 2-Amino-N-[2-(3,4-difluoro-phenyl)-ethyl]-N-(3,4-dimethyl-phenyl)-2-thiophen-3-yl-acetamide hydrochloride] registered a Kb of 0.0302 µM.
The result for `COc1ccc(N(CCc2ccc(C(F)(F)F)cc2)C(=O)C(N)c2ccccc2OC)cc1F` (centres unmarked) [Example 42] reads 0.0559 µM.
